According to US20190022104A1 (priority 2016, published 2019):
Several values for one entry are separate records, joined by “and”; a condition that tells them apart may be missing. Identical values can stand only once. Entries after “also recorded” stand apart in the source; their conditions may differ. Like-named read-outs stand apart in the source and are kept apart here.

Columns and labels:
[1] = tested on: mice with sepsis shock induced by 75 mg/kg endotoxin; assay: Survival of mice with sepsis shock induced by 75 mg/kg endotoxin; type: in vivo; settings: for number of mice survived / number of mice died: 10 mice per group; for number of mice survived: endotoxin group 4 survived; for number of mice died: endotoxin group 6 died; for survival rate of mice: sepsis shock induced by 75 mg/kg endotoxin i.p., 10 animals per group, endotoxin group 40%, normal control 100%
Protocol: (§1) The model of septic shock in mice was induced by intraperitoneal injection of a toxic dose of 75 mg/kg endotoxin. […] The model of sepsis shock in mice was induced by intraperitoneal injection of a total lethal dose of 150 mg/kg endotoxin. […] Mice injected intraperitoneally with placebo in place of endotoxin were used as a normal control group.
The model of sepsis shock in mice was induced with 75 mg/kg endotoxin.

TNF-α in serum = assay: Serum TNF-α concentration in rats with endotoxin-induced sepsis shock; type: in vivo
[2] = tested on: mice with sepsis shock induced by 150 mg/kg endotoxin; assay: Survival time of mice with sepsis shock induced by 150 mg/kg endotoxin; type: in vivo; settings: for average survival time of mice: 150 mg/kg endotoxin i.p. (total lethal dose), endotoxin group 29.15±6.84 hours, p<0.05 vs endotoxin group
Protocol: as §1
The septic shock in mice was induced with 150 mg/kg endotoxin and the survival curves were plotted according to the survival time of mice in each group.

[3] = tested on: lung tissue of rats with sepsis shock; assay: Pathological change in lung tissue under microscope, rats with sepsis shock; type: in vivo; settings: compared with the endotoxin group
[4] = tested on: liver tissue of rats with sepsis shock; assay: Pathological change in liver tissue under microscope, rats with sepsis shock; type: in vivo; settings: compared with the endotoxin group
Protocol: as §1

[5] = tested on: gastric and duodenal ulcers; settings: patients; cited from earlier work
[6] = cited from earlier work
[7] = cited from earlier work; remark: listed apart in the source
[8] = tested on: mouse sepsis model (LPS 75 mg/kg); assay: Effects of different doses of pirenzepine in LPS mouse sepsis model; settings: 0.3-1.2 mg/kg i.p.; no statistically significant difference between dose groups
Protocol: After 30 minutes, LPS (75 mg/kg) was injected intraperitoneally to produce a mouse sepsis model.

[9] = 0 min after sepsis shock was reached, endotoxin group 641.05±24.75, normal control 159.36±50.40
[10] = 30 min after sepsis shock was reached, endotoxin group 677.95±47.05, normal control 223.41±27.42
[11] = 90 min after sepsis shock was reached, endotoxin group 716.11±24.41, normal control 166.86±28.80

Structure (SMILES)	number of mice survived ([1]; 75 mg/kg endotoxin)	number of mice died ([1]; 75 mg/kg endotoxin)	survival rate of mice [1]	concentration of TNF-α in serum of rats (TNF-α in serum; [9])	concentration of TNF-α in serum of rats (TNF-α in serum; [10])	concentration of TNF-α in serum of rats (TNF-α in serum; [11])	average survival time of mice [2]	pathological changes of the lung tissue under microscope [3]	pathological changes of the liver tissue under microscope [4]	other results
CCN(CC)CC1CCCCN1CC(=O)N1c2ccccc2C(=O)Nc2cccnc21 (centres unmarked) [AF-DX116, 11-[[2-[(Diethylamino)methyl]-1-piperidinyl]acetyl]-5,11-dihydro-6H-pyrido[2,3-b][1,4]benzodi azepin-6-one]	1	9	10%	706.19 ± 6.00 pg/mL	757.48 ± 51.40 pg/mL	857.21 ± 74.14 pg/mL	16.02 ± 2.06 h	the destruction of the tissue was aggravated; also recorded: pathological changes were aggravated	cell necrosis was more serious; also recorded: cell necrosis was more severe	concentration of TNF-α in serum of rats (TNF-α in serum; 150 min after sepsis shock was reached, endotoxin group 737.00±16.38, normal control 161.47±9.75): 932.22 ± 17.25 pg/mL
CN1[C@@H]2CC[C@H]1C[C@@H](OC(=O)C(CO)c1ccccc1)C2 (some centres unmarked) [atropine]	7		70%			598.54±48.85 pg/mL and 598.54 ± 48.85^f pg/mL	37.15 ± 9.27 h	congestion, exudation, and necrosis were significantly reduced; also recorded: the exudation was significantly reduced, and alveolar septum widening was reduced	the lesions were all relieved; also recorded: the edema and necrosis of hepatocytes were all reduced	
CN1CCN(CC(=O)N2c3ccccc3C(=O)Nc3cccnc32)CC1 [pirenzepine, 11-[(4-methylpiperazin-1-yl)acetyl]-5,11-dihydro-6H-pyrido[2,3-b][1,4]benzodiazepin-6-one]	8	2	80%	378.12±17.87 pg/mL and 378.12 ± 17.87^a pg/mL	418.19±22.75 pg/mL and 418.19 ± 22.75^c pg/mL	446.35±33.04 pg/mL and 446.35 ± 33.04^e pg/mL	44.6 ± 11.96 h	congestion, exudation, and necrosis were significantly reduced; also recorded: the exudation was significantly reduced, and edema and inflammation in the alveolar septum were reduced	the lesions were all relieved; also recorded: the lesions were reduced	healing rate of the ulcer [5]: 70%-94%; effect on mortality of mice with sepsis ([1]; 75 mg/kg endotoxin, FIG. 1): significantly reduced the mortality; serum TNF-α concentrations compared with the endotoxin-untreated group (TNF-α in serum; rats, at 0, 30, 90 and 150 minutes, p<0.05): significantly lower; effect on mortality of mice with sepsis ([2]; 150 mg/kg endotoxin, FIG. 2): significantly reduced the mortality; solubility ([6]; in anhydrous ethanol): very easily soluble; solubility ([6]; in formic acid): soluble; solubility ([6]; in methanol): insoluble; solubility ([6]; in water): soluble; plasma protein binding rate ([7]; in vivo): about 10%; plasma t½ ([7]; in vivo): 10 to 12 h; tmax ([7]; oral): 2 to 3 h; absolute bioavailability ([7]; oral, printed spread (±4,6%)): about 26%; effect of low-dose pretreatment on survival time of mice with sepsis [8]: can prolong the survival time
